Key:
[1] = target: T1, Catalase (from bovine liver) (Bos taurus, UniProt P00432); assay: Inhibition of pure catalase activity (cell free), H2O2 decay at 240 nm; type: biochemical
T1 construct: Catalase (from bovine liver); purchased Sigma-Aldrich, St. Louis, MO, USA; host or cells: bovine liver
T1 sequence (P00432 2-527 limits assumed): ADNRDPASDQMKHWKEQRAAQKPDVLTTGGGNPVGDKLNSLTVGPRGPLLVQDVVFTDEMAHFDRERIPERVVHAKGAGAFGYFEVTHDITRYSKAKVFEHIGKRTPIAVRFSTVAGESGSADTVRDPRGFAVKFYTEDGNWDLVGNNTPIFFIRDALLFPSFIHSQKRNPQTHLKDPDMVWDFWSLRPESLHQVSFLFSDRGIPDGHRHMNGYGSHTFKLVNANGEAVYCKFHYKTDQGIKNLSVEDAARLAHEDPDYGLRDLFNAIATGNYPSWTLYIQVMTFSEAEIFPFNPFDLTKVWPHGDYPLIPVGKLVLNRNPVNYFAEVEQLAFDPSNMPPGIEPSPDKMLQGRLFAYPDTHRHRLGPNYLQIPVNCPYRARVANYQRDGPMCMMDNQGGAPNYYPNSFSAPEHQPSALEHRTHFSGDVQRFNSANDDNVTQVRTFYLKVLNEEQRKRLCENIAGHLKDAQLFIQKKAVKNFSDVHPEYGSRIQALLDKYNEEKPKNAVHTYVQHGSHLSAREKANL
Experimental: Absorption spectrophotometer (Varian, CARY 100 Bio, USA) was used to determine pure catalase activity (cell free). Briefly, 900 µl of H2O2 (0.036%) was taken in quartz cell of 1 cm path length and its absorbance was recorded at 240 nm. To the solution, 100 µl of catalase (50 U/ml) was added and the decrease in absorbance was recorded at 10 s interval. This experiment was performed in presence 50 µM each of four catechins and 3-AT separately to evaluate the inhibitory effect of catechins on catalase activity, after 1 h incubation.
(§1) On addition of catechins, a decrease in rate of H2O2 degradation i.e. a decrease in pure catalase activity was observed which is represented in Figure 6A. Catechins with galloyl moiety (ECG and EGCG) reduced catalase activity more than its non-gallated counterparts i.e. EGC and EC. However, Inhibition by EGCG is the closest to inhibition by known catalase inhibitor 3-AT.

Bcl-2 proteins = settings: read-out: inhibition constant (K i); cited from earlier work
[2] = tested on: phosphorylation of JNK, JUN, MEK1, MEK2; settings: JB6 epidermal cell lines, 5–20 µM; cited from earlier work
G3BP1 = settings: read-out: dissociation constant (K d); cited from earlier work
[3] = tested on: cyclin dependent kinase 2 (CDK2); settings: MCF7 breast cancer cell lines, 30 µM; cited from earlier work
DNA methyltransferase = settings: KYSE 510 human esophageal cancer cells; cited from earlier work
K562 cells = assay: Intracellular ROS by DCFDA fluorescent probe; type: cell-based, human; settings: 24 h, basal 255.09±3.69 AU
Experimental: Intracellular ROS were estimated by using the DCFDA fluorescent probe. Intracellular H2O2 and other peroxides can oxidize DCFDA to highly fluorescent compound dichlorofluorescein (DCF). K562 cells were incubated at 37°C in absence and presence of EGCG (12.5 – 100 µM) for 24 h. Cells were again incubated with 10 µM DCFDA at 37°C for an additional 30 min, and then washed twice with PBS. Finally the fluorescence intensity of DCF was measured with an excitation wavelength of 485 nm and emission wavelength of 530 nm.

[4] = target: T2, cellular catalase in K562 cells (Homo sapiens, UniProt P04040); assay: Inhibition of cellular catalase activity in K562 cells; type: cell-based; settings: 50 µM each, 2 hours at 37°C
T2 construct: endogenous in cells; host or cells: K562 cells
T2 sequence (P04040 2-527 limits assumed): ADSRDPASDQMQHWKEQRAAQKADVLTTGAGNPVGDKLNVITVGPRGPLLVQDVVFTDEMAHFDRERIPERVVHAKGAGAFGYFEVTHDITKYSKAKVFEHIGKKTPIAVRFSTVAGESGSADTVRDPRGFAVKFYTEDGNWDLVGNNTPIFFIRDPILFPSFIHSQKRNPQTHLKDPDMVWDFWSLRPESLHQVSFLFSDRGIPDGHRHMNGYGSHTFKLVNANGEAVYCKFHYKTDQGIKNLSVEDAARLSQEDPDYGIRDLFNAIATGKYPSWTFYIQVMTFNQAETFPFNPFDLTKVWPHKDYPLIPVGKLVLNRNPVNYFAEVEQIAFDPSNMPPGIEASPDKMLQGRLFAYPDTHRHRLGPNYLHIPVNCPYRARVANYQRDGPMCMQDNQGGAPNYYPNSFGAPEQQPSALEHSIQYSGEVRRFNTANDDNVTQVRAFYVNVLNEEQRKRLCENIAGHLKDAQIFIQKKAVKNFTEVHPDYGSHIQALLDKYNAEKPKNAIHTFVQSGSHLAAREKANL
Experimental: Estimation of cellular catalase activity was carried out by suspending K562 cells (5×10^4 for each sample) in 1 ml of PBS along with four catechins and 3-AT (50 µM each) separately and incubated at 37°C for 2 hours. Later, each sample was centrifuged and washed twice with PBS. The final pellet was suspended in 200 µl lysis buffer and kept on ice for 30 min. The lysate was then used in the same protocol used for evaluation of pure catalase activity.
as §1

CDK4 = settings: MCF7 breast cancer cell lines, 30 µM; cited from earlier work

O=C(O[C@@H]1Cc2c(O)cc(O)cc2O[C@@H]1c1cc(O)c(O)c(O)c1)c1cc(O)c(O)c(O)c1 [EGCG, (−)-epigallocatechin gallate]
y-intercept 1/V0 of inhibited catalase ([1]; Lineweaver-Burk plot, uninhibited 0.0081): 0.3635 min/µM | type of inhibition (Lineweaver-Burk plot) ([1]; catalase – H2O2 reaction): uncompetitive | order of inhibition of catalase activity ([1]; pure catalase, 50 µM each, 1 h incubation): 3-AT>EGCG>ECG>EC>EGC | Ki (Bcl-2 proteins): 0.33 to 0.49 µM | inhibition of phosphorylation of JNK, JUN, MEK1, MEK2 [2]: inhibited | Kd (G3BP1): 0.4 µM | inhibition of CDK2 [3]: inhibited | Ki (DNA methyltransferase): 7 µM | intracellular ROS (K562 cells; 12.5 µM): 298.01±4.89 AU | intracellular ROS (K562 cells; 25 µM): 320.83±4.03 AU | intracellular ROS (K562 cells; 50 µM): 354.07±4.66 AU | intracellular ROS (K562 cells; 100 µM): 442.90±7.43 AU | inhibition of cellular catalase activity [4]: inhibited cellular catalase in K562 cancer cells | inhibition of CDK4 (CDK4): inhibited

Source: article PMC4099323, “Inhibition of Catalase by Tea Catechins in Free and Cellular State: A Biophysical Approach” (PLoS ONE, 2014)
